From a melting point compilation (Tetko et al.; mined from patent text by program, amines drawn as free bases though some values may be those of a salt)

SMILES	melting point [°C]
CC(C)(C)OC(=O)N1CCN(c2ccccc2O)CC1	115 to 117
O=S(=O)(O)CCN1CCOCC1	68 to 78
CN(C)CCCNC(=O)N1C(=O)Cc2cc(Cl)ccc21	84 to 85
COC1=CC23CCN(C=O)C(Cc4cccc(OC)c42)C3CC1 (configuration not stated)	169 to 172
CC(=O)N1CCC2(CC1)C(=O)NC(=O)N2c1ccc(C)cc1	295 to 297
CCCSc1nc2cc(C)c(C)cc2[nH]1	122 to 123
CSc1nnc(C(C)(C)C)[nH]1	191 to 194
CS(=O)(=O)NC1Cc2ccc(C(=O)CCCCCl)cc2C1 (configuration not stated)	71 to 72
CNc1c(C2=CC(C)(C)Oc3ccc(C#N)cc32)c(=O)c1=O	193 to 194
O=[N+]([O-])c1ccc(C(O)c2ccccn2)c(OCC(F)(F)F)c1 (configuration not stated)	119 to 123
Brc1ccc2ccn(Cc3ccccc3)c2c1	85 to 88
CC(=CN(C)C)C(=O)c1cccc(C(F)(F)F)c1	53 to 55
CCCCCCCCCC(O)P(=O)(O)O (configuration not stated)	164
OCC1Cc2c(F)ccc(Br)c2O1 (configuration not stated)	40 to 43
CON1CCC2(CC1)C(O)=C(c1c(C)cc(C)cc1C)C(=O)N2O	152 to 154
COc1ccc(-c2cc(=O)cc(C(N)=O)o2)cc1	303 to 308
Cc1cc(CCCOc2c(C)cc(-c3noc(CI)n3)cc2C)on1	89 to 90
CC(C)NC(=O)N1CCc2[nH]cnc2C1c1ccccc1 (configuration not stated)	245
O=C1COc2ccc(C3=Nn4cnnc4SC3c3ccccn3)cc2N1 (configuration not stated)	216 to 218
COc1cccc2[nH]c3c(c12)CC(N(C)C)CC3 (configuration not stated)	185 to 189
NC1CCN(c2nc(Nc3ccc(F)cc3F)c(C(=O)O)cc2F)C1 (configuration not stated)	249 to 250
O=C1c2ccccc2C(=O)N1C1CN(C(c2ccccc2)c2ccccc2)C1	118 to 120
CCOC(=O)C1=C(C)NC(CSC(=O)CCC2CCCCC2)=C(C(=O)OCC)C1c1cccc([N+](=O)[O-])c1 (configuration not stated)	109 to 112
CC(C)(C=O)C(O)(COc1cccc2ccccc12)Cn1ccnc1 (configuration not stated)	147
CCOCc1nc2c(N)nc3cc(CCCN4CCOCC4)ccc3c2n1CC(C)(C)O	132 to 133
COC(=O)c1ccc(C=CC(=O)N2CCc3c([nH]c4ccccc34)C2c2ccc3c(c2)CCO3)cc1 (configuration not stated)	186

SMILES	melting point [°C]
CN(CCC(Oc1ccc(C(=O)c2ccc3ccccc3c2)cc1)c1ccccc1)CC(=O)O (configuration not stated)	77 to 89
COc1cc2c(-c3ccnc(NN)c3)c(CO)c(CO)cc2cc1OC(C)C	128 to 131
O=C(Nc1cc([N+](=O)[O-])ccc1F)C(F)(F)F	112 to 113
COc1ccc(NC(=O)/C(C)=C/c2ccc(C(F)(F)F)cc2)c(C(=O)O)c1	207 to 208
O=Cc1cc(-c2ccc(O)cc2)c2occc2c1	154 to 155
NCCc1ccc(-n2nc(C(F)(F)F)cc2C(F)(F)F)cc1	54
COc1ccc(C=Cc2oc3ccc(Br)cc3c2C(C)=O)cc1	163 to 165
CN(C)C1CCN(C(=O)N2CCC(c3[nH]nc4c3C(=O)c3c(NC(=O)NN5CCOCC5)cccc3-4)CC2)CC1	172 to 174
CC(O)(c1cccnc1)C1CCN(C[C@@]23C[C@@H](c4ccccc42)c2ccc(Cl)cc23)CC1 (single isomer, unassigned)	87 to 93
CCCc1ccc(Oc2ccc3c(c2)OC(C(F)(F)F)C(C(=O)O)=C3)cc1 (configuration not stated)	144 to 146
Cc1ccc(-c2coc(-c3ccc4c(c3)C(C)(C)CCC4(C)C)c2)cc1	155 to 157
CC(CC#N)n1nnc2cc3c(=O)n(C(C)Cn4ncnn4)nnc3cc2c1=O (configuration not stated)	105 to 108
CC1(C)SC(c2ccncc2)NC1C(=O)O (configuration not stated)	149 to 151
COc1cc(CC(=O)O)n(C)c1C(=O)c1ccc(Cl)cc1	142
CC(=O)OC(CCCCl)C(=O)OCc1ccccc1 (configuration not stated)	40 to 41
O=C(O)C1C2CCC(C2)C1NS(=O)(=O)c1ccccc1 (configuration not stated)	157 to 159
CCCC1CC(O)N(C(C)=O)C1(C(=O)OCC)C(=O)OCC (configuration not stated)	105 to 106
CC(=O)NC1(c2ccc(CN3CCN(c4ncccn4)CC3)cc2)CC1	145 to 146
COC(=O)CC(O)C(O)CC(=O)OC (configuration not stated)	80 to 81
COc1cc2c(c(Cl)c1Cl)C(=O)C(CCCCl)(CCC(C)=O)C2 (configuration not stated)	120 to 122
C[C@@]1(C(=O)O)Oc2ccccc2NC1=O	168 to 171
CNC(=S)NCCS(=O)Cc1nc[nH]c1C (configuration not stated)	139 to 140
COc1ccc(-c2cc(=S)n(CC=Cc3ccc(F)cc3F)nc2-c2ccc(OC)cc2)cc1	141
CN(C)c1nnc(NN)c(=O)[nH]1	264 to 266
CCOC(=O)c1c(N2CCN(C(=O)c3cccs3)CC2)c2cc(F)cnc2n(Cc2ccccc2)c1=O	130

Next, values leading:

melting point [°C]	SMILES
145 to 146	CNC(=O)C(C)(C)C(O)(Cn1cncn1)c1ccc(Cl)cc1Cl (configuration not stated)
61 to 63	CCOC(=O)CCc1oc2cccc(O)c2c1C
182	O=C(O)c1csnc1-c1ccc(Cl)cc1
113	CCCCN1CCC(CNC(=O)c2ccc(N)n3cc(Cl)nc23)CC1
152 to 155	CCC(=O)Nc1c(C(=O)c2cccc(C)c2)[nH]c2cc(Cl)ccc12
233 to 240	Cc1cc(C)n(-c2nc(Nc3cccc(C(F)(F)F)c3)c3ccccc3n2)n1
150 to 152	Cc1nn(C)c(OCC(=O)c2ccccc2)c1C(=O)c1ccc(Cl)c(C)c1Cl
168	CCOC(=O)C(=O)Nc1cccc(F)c1O
206	NCC(=O)NCCCCNc1cccc2c1C(=O)c1ccccc1C2=O
173 to 174	NC1=Nc2ncccc2OC1
82 to 83	CC(=O)OC(C)c1cccc2cc(C(C)=O)oc12 (configuration not stated)
170 to 171	CCOC(=O)c1cn(-c2cnc3ccccc3c2)cn1
195	CC(C)Nc1nc(N)c(C(=O)NC(N)=S)nc1Cl
99 to 102	COc1cc(OC)nc(Oc2cccc3c2C(=O)OC3OCC#N)n1 (configuration not stated)
242 to 244	Cc1cccc(N2CCOC2=O)c1COc1cccn2c(C=O)c(C)nc12
245 to 247	Cc1nc(N)nc(N)c1-c1cccc(Cl)c1Cl
227 to 228	C#CCn1c(-c2cc(Cl)nc(Cl)c2)nc(O)c(OC)c1=O
133 to 134	CCc1ccc2ccc(=O)[nH]c2n1
257 to 258	COc1ccc(-c2c(Cl)c(CN3C(=O)CCC3=O)nc3sc4c(c23)CCC(=O)C4)cc1
209 to 211	CCOC(=S)Nc1cccc(-c2ccnc3c(C(=O)c4cccs4)cnn23)c1
149 to 150	CCOC(=O)CN1C(=O)c2ccc3ccccc3c2S1(=O)=O
143 to 145	CNC(=O)N(O)Cc1cccc(Nc2ccccc2C(=O)OC)c1Cl
169 to 171	CCC(=O)Nc1ccc(OCc2nc(Cl)ccc2Cl)cc1
130 to 131	CCOC(=S)c1cnc(C)nc1N
195	CC(C)n1c2ccccc2c2cc(NC(=O)c3ccccc3Cl)ccc21
92 to 95	C=CC(=O)Oc1cccc(O)c1O
